Calls of active or inactive are those of the source. No cut-off for these calls is given here.

IC50 and Activity data for 18 compounds are collected here from ChEMBL document CHEMBL1148590, “Design and synthesis of 3,4-dihydro-1H-[1]-benzothieno[2,3-c]pyran and 3,4-dihydro-1H-pyrano[3,4-b]benzofuran derivatives as non-nucleoside inhibitors of HCV NS5B RNA dependent RNA polymerase” (Bioorg Med Chem Lett, 2006).

Test [1] deals with RNA-directed RNA polymerase (Hepacivirus hominis, UniProt O39930). Description: Displacement of [alpha-32P]GTP from recombinant HCV NS5B RNA dependent RNA polymerase.
Sequence of RNA-directed RNA polymerase (O39930 whole entry): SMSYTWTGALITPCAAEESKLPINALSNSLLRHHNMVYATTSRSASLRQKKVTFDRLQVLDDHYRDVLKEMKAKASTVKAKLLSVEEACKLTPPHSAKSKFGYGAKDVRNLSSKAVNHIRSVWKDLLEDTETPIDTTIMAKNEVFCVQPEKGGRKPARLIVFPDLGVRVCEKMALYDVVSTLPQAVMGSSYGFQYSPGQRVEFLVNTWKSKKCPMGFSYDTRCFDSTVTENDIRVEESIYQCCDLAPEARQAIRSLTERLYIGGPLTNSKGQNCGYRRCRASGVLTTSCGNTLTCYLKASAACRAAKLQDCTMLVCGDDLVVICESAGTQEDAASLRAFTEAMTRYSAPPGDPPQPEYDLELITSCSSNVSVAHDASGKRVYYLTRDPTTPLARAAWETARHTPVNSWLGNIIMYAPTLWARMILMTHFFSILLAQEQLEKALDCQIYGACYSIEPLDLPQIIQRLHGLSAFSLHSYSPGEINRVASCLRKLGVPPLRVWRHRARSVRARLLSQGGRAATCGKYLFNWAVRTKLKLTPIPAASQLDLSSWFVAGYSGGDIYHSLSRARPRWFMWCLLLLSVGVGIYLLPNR
A further test has as its system Huh-7. The test is described as follows: Cytotoxicity against Huh7 cells by MTS metabolic assay. As to conditions: Homo sapiens. It counts as functional, cell-based.
A further test addresses NS3 (Hepatitis C virus, UniProt A3EZJ3). The test is described as follows: Inhibition of HCV NS3 helicase. Also on record: species or system Hepacivirus hominis.
The target in test [2] is Human immunodeficiency virus type 1 reverse transcriptase (Human immunodeficiency virus 1, UniProt Q72547). Description: Inhibition of HIV reverse transcriptase.
The subject of the next test is Vero. Description: Cytotoxicity against vero cells by MTS metabolic assay. It counts as functional, cell-based. As to conditions: Chlorocebus sabaeus. Background: Formazan colour is commonly taken as a measure of viable cells.
Test [3] has as its target T1, DNA polymerase subunit gamma-1 (Homo sapiens) (UniProt P54098).
T1 sequence (whole entry): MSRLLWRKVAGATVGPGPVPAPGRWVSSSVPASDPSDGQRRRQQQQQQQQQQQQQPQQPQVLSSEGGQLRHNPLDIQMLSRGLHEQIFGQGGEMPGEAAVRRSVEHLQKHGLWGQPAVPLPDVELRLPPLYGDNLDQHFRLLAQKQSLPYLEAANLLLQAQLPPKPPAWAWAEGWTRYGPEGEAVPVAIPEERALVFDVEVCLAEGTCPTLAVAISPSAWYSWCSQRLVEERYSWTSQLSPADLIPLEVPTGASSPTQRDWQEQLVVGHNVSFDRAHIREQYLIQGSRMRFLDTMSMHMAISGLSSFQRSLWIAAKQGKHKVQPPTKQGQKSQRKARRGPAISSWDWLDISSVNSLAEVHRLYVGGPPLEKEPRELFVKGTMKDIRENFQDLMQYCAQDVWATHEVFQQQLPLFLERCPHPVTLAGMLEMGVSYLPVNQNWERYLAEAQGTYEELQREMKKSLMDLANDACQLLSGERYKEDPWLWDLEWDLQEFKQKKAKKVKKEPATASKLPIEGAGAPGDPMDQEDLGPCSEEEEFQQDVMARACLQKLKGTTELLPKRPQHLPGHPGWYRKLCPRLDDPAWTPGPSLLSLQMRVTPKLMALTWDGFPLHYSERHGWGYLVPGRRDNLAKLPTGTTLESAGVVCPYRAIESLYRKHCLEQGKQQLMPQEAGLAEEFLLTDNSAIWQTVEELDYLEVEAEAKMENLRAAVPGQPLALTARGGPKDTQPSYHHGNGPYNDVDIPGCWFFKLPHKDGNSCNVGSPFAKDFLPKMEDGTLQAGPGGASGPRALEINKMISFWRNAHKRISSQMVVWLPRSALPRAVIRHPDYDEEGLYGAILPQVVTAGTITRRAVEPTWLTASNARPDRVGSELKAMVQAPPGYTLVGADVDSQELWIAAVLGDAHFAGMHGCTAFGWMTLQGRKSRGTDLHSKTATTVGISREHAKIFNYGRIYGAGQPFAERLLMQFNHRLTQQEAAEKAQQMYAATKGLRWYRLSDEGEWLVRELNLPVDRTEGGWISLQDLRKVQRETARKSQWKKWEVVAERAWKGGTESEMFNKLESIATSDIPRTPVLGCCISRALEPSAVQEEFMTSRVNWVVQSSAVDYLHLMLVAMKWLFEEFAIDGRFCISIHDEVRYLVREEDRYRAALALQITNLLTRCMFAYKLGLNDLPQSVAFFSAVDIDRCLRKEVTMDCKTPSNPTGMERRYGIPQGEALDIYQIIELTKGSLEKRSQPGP
The test is described as follows: Inhibitory activity against human mitochondrial DNA polymerase gamma upto 50 uM.

Sequence of NS3 (A3EZJ3 whole entry): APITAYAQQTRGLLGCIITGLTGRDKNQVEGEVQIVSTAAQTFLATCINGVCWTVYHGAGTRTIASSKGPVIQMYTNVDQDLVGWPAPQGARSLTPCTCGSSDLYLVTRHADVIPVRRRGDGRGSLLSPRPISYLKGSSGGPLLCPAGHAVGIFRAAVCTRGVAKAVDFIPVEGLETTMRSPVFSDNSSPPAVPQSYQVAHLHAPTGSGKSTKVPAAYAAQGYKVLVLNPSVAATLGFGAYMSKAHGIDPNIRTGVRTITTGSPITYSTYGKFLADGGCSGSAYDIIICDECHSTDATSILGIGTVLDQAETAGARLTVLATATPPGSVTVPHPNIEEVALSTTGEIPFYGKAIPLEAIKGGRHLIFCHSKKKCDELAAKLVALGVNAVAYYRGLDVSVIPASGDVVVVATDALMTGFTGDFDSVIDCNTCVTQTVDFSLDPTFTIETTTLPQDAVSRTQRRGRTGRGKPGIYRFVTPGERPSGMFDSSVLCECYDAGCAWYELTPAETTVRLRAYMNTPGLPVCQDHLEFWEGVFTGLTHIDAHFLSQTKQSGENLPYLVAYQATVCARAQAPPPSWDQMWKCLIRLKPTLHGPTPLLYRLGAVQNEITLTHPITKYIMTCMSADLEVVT

With `CCC1(CC(=O)O)OCCc2c1oc1c(Cl)ccc(Cl)c21` (stereo not drawn), in test [1], the IC50 (as a rule, the point on the concentration scale where inhibition reaches its midpoint) is 16.3 µM.
With `CCCC1(CC(=O)O)OCCc2c1oc1c(Cl)ccc(Cl)c21` (stereo not drawn), the IC50 in test [1] worked out at 1.49 µM.
With `CCC[C@]1(CC(=O)O)OCCc2c1sc1c(C)ccc(C#N)c21`, the IC50 in test [1] came out at 0.17 µM.
In the case of `CCC[C@@]1(CC(=O)O)OCCc2c1sc1c(C)ccc(C#N)c21`, the IC50 in test [1] amounted to 2.85 µM.
Regarding `CCCCC1(CC(=O)O)OCCc2c1sc1c(Cl)ccc(Cl)c21` (stereo not drawn), in test [1], the IC50 is 0.75 µM.
As to `CC1(CC(=O)O)OCCc2c1sc1c(Cl)ccc(Cl)c21` (stereo not drawn), the IC50 in test [1] amounted to 17.6 µM.
On the same count and under the same terms, in the case of `CC1(CC(=O)O)OCCc2c1oc1c(Cl)ccc(Cl)c21` (stereo not drawn) it was more than 20 µM; in that of `CCCC1(CC(=O)O)OCCc2c1sc1c(C)ccc(Br)c21` (stereo not drawn), 0.19 µM; in that of `CCCC1(CC(=O)O)OCCc2c1sc1c(C)cc(F)c(C#N)c21` (stereo not drawn), 0.13 µM.
Still for that read-out and setting: in the case of `CCCC1(CC(=O)O)OCCc2c1sc1c(C)cc(F)cc21` (stereo not drawn) it was more than 20 µM; in that of `CCCC1(CC(=O)O)OCCc2c1sc1ccccc21` (stereo not drawn), more than 20 µM.
Regarding `CCC[C@]1(CC(=O)O)OCCc2c1sc1c(C)cc(F)c(C#N)c21`, the IC50 in the test with Huh-7 is more than 75 µM; against NS3 it was more than 75 µM; in test [2], more than 100 µM; in the test on Vero, more than 75 µM; in test [1], 0.05 µM. Besides, in test [3], the result was inactive.
Turning to `CCCC1(CC(=O)O)OCCc2c1sc1c(Cl)ccc(Cl)c21` (stereo not drawn), the IC50 in test [1] amounted to 0.14 µM.
In the case of `CCCC1(CC(=O)O)OCCc2c1oc1ccccc21` (stereo not drawn), in test [1], the IC50 was more than 20 µM.
For `CCCCC1(CC(=O)O)OCCc2c1oc1c(Cl)ccc(Cl)c21` (stereo not drawn), the IC50 in test [1] was 4.46 µM.
`CCC1(CC(=O)O)OCCc2c1sc1c(Cl)ccc(Cl)c21` (stereo not drawn): in test [1], the IC50 came to 1.9 µM.
For the compound `CCCC1(CC(=O)O)OCCc2c1sc1c(C)ccc(C#N)c21` (stereo not drawn), in test [1], the IC50 was 0.32 µM.
Take `CCC[C@@]1(CC(=O)O)OCCc2c1sc1c(C)cc(F)c(C#N)c21`: the IC50 in test [1] was 5.36 µM.
